pIC50: −log10 of the molar value. Starred links: 1 amine or outer side, 2 acyl side, 3 side chain; linkers in the order of their positions; H or OH if unused. Positions of bridges follow the written chain, without caps; N, C: chain ends. Non-standard residues stand in square brackets, D forms with d. Residues, ends and D or L forms follow the SMILES beside them. *: point of attachment. pTerphenylCO(4''-OnC5H11) = CCCCCOc1ccc(-c2ccc(-c3ccc(C(=O)*)cc3)cc2)cc1; Orn(4R-OH,5R-OH) = O=C([C@H](C[C@@H](O)[C@@H](O)N[*:3])N[*:1])[*:2]; hTyr(3S-OH,4S-OH) = N[C@H](C(=O)O)[C@H](O)[C@@H](O)c1ccc(O)cc1; Pro(3S-OH,4S-Me) = C[C@H]1CN[C@H](C(=O)O)[C@H]1O; Hyp = O=C(O)[C@@H]1C[C@@H](O)CN1
Assays:
[1] = Cell viability measured by CellTiter-Glo assay in Vero cells at MOI 0.05 after 72hr; details: chlorocebus sabaeus
SARS-CoV-2 = assay: microbe, parasite or virus in culture; type: functional, organism-based, Chlorocebus sabaeus; details: Severe acute respiratory syndrome coronavirus 2, Vero, 24 h
[2] = Selectivity index for antiviral vs cytotoxic activity in Vero cells (CC50/IC50); details: monkey

| SMILES | CC50 at 72 h ([1]; Vero cells) [µM] | pIC50 (SARS-CoV-2) | selectivity ratio ([2]; Vero cells) | CC50 at 72 h ([1]; vero) [µM] | selectivity ratio ([2]; vero) |
| --- | --- | --- | --- | --- | --- |
| Nc1ccc(/N=N/c2ccccc2)c(N)n1 [PHENAZOPYRIDINE] | > 50 | 4.55 | – | – | – |
| CC(=O)O[C@H]1C[C@H](O[C@H]2[C@@H](O)C[C@H](O[C@H]3[C@@H](O)C[C@H](O[C@H]4CC[C@@]5(C)[C@H](CC[C@@H]6[C@@H]5C[C@@H](O)[C@]5(C)[C@@H](C7=CC(=O)OC7)CC[C@]65O)C4)O[C@@H]3C)O[C@@H]2C)O[C@H](C)[C@H]1O[C@@H]1O[C@H](CO)[C@@H](O)[C@H](O)[C@H]1O [LANATOSIDE C] | > 50 | < 4.30 | 1 | – | – |
| C[C@H]1O[C@@H](O[C@H]2[C@@H](O)C[C@H](O[C@H]3[C@@H](O)C[C@H](O[C@H]4CC[C@@]5(C)[C@H](CC[C@@H]6[C@@H]5CC[C@]5(C)[C@@H](C7=CC(=O)OC7)CC[C@]65O)C4)O[C@@H]3C)O[C@@H]2C)C[C@H](O)[C@@H]1O [DIGITOXIN] | > 50 | > 6.64 | 214 | – | – |
| CC1(C)C=Cc2c(c3c(c4c(=O)c(-c5ccc(O)cc5)coc24)OC(C)(C)CC3)O1 | 9.89 | 5.49 | 3.07 | – | – |
| OC(c1cc(C(F)(F)F)nc2c(C(F)(F)F)cccc12)C1CCCCN1 (centres undefined) [MEFLOQUINE] | 14 | 5.36 | 3.22 | – | – |
| CC[C@@H](C(=O)[C@@H](C)[C@@H](O)[C@H](C)[C@@H]1O[C@@H]([C@@H](CC)C(=O)O)CC[C@@H]1C)[C@H]1O[C@]2(C=C[C@@H](O)[C@]3(CC[C@@](C)([C@H]4CC[C@](O)(CC)[C@H](C)O4)O3)O2)[C@H](C)C[C@@H]1C [SALINOMYCIN] | > 50 | 6.62 | 211 | – | – |
| CC(C)=CCCC1(C)C=Cc2c(O)c3c(c(CC=C(C)C)c2O1)OC12C(=CC4CC1C(C)(C)OC2(C/C=C(/C)C(=O)O)C4O)C3=O (centres undefined) [DIHYDROGAMBOGIC ACID] | 9.85 | 4.87 | 0.74 | – | – |
| CC(C)(C)c1ccc(C(=O)CCCN2CCC(OC(c3ccccc3)c3ccccc3)CC2)cc1 [EBASTINE] | – | – | – | 15.4 | – |
| CCN(CC)Cc1cc(Nc2ccnc3cc(Cl)ccc23)ccc1O [AMODIAQUINE] | > 50 | 5.29 | – | – | – |
| C[C@H]1O[C@@H](O[C@H]2[C@@H](O)C[C@H](O[C@H]3[C@@H](O)C[C@H](O[C@H]4CC[C@@]5(C)[C@H](CC[C@@H]6[C@@H]5C[C@@H](O)[C@]5(C)[C@@H](C7=CC(=O)OC7)CC[C@]65O)C4)O[C@@H]3C)O[C@@H]2C)C[C@H](O)[C@@H]1O [DIGOXIN] | > 50 | 6.72 | 257 | – | – |
| CC(C)=CCc1c2c(c3occ(-c4ccc(O)cc4)c(=O)c3c1O)C=CC(C)(C)O2 [OSAJIN] | 11.4 | 5.41 | 2.95 | – | – |
| CCN(CC)CCOc1ccc(C(=C(Cl)c2ccccc2)c2ccccc2)cc1 [CLOMIPHENE] | 15 | 5.27 | 2.8 | – | – |
| CCN1CCN(Cc2ccc(Nc3ncc(F)c(-c4cc(F)c5nc(C)n(C(C)C)c5c4)n3)nc2)CC1 [ABEMACICLIB] | > 50 | 5.18 | – | – | – |
| CCCCCCO[C@@H](C)c1cccc(-c2csc(NC(=O)c3cc(Cl)c(/C=C(\C)C(=O)O)c(Cl)c3)n2)c1OC [LUSUTROMBOPAG] | 14.6 | 5.42 | 3.87 | – | – |
| C=CC(=O)Nc1cc(Nc2nccc(-c3cn(C)c4ccccc34)n2)c(OC)cc1N(C)CCN(C)C [OSIMERTINIB] | 13.2 | 5.49 | 4.05 | – | – |
| CCCCCC(=O)O[C@]1(C(C)=O)CC[C@H]2[C@@H]3CCC4=CC(=O)CC[C@]4(C)[C@H]3CC[C@@]21C [HYDROXYPROGESTERONE CAPROATE] | > 50 | 5.20 | 7.93 | – | – |
| CC1=NN(c2ccc(C)c(C)c2)C(=O)/C1=N\Nc1cccc(-c2cccc(C(=O)O)c2)c1O [ELTROMBOPAG] | > 50 | 5.08 | – | – | – |
| Cc1cccc(C)c1OCC(=O)N[C@@H](Cc1ccccc1)[C@@H](O)C[C@H](Cc1ccccc1)NC(=O)[C@H](C(C)C)N1CCCNC1=O [LOPINAVIR] | > 50 | 5.04 | – | – | – |
| O=C(Nc1cc(Cl)cc(Cl)c1O)c1c(O)c(Cl)cc(Cl)c1Cl [OXYCLOZANIDE] | > 50 | 5.43 | – | – | – |
| Oc1c(Cl)cc(Cl)c(Cl)c1Cc1c(O)c(Cl)cc(Cl)c1Cl [HEXACHLOROPHENE] | 19.3 | 6.05 | 21.6 | – | – |
| COc1cc2c3cc1Oc1c(OC)c(OC)cc4c1[C@@H](Cc1ccc(O)c(c1)Oc1ccc(cc1)C[C@@H]3N(C)CC2)N(C)CC4 [BERBAMINE] | > 50 | 5.10 | 6.35 | – | – |
| C1CCC(C(CC2CCCCN2)C2CCCCC2)CC1 (centres undefined) [PERHEXILINE] | 8.67 | 5.20 | 1.36 | – | – |
| O=C(Nc1ccc([N+](=O)[O-])cc1Cl)c1cc(Cl)ccc1O [NICLOSAMIDE] | > 50 | – | – | – | – |

| SMILES | CC50 at 72 h ([1]; Vero cells) [µM] | pIC50 (SARS-CoV-2) | selectivity ratio ([2]; Vero cells) | CC50 at 72 h ([1]; vero) [µM] | selectivity ratio ([2]; vero) |
| --- | --- | --- | --- | --- | --- |
| CN(C)C(=O)COC(=O)Cc1ccc(OC(=O)c2ccc(NC(=N)N)cc2)cc1 [CAMOSTAT] | > 50 | < 4.30 | – | – | – |
| Cc1cc(Nc2ncc(Cl)c(Nc3ccccc3S(=O)(=O)C(C)C)n2)c(OC(C)C)cc1C1CCNCC1 [CERITINIB] | 6.84 | 5.54 | 2.39 | – | – |
| CN(C)C(=O)C(CCN1CCC(O)(c2ccc(Cl)cc2)CC1)(c1ccccc1)c1ccccc1 [LOPERAMIDE] | 29.3 | – | – | – | – |
| C[C@@H]1O[C@@H](O[C@@H]2C=C3CC[C@@H]4[C@H](CC[C@]5(C)[C@@H](c6ccc(=O)oc6)CC[C@]45O)[C@@]3(C)CC2)[C@H](O)[C@H](O)[C@H]1O [PROSCILLARIDIN] | > 50 | 5.69 | 24.5 | – | – |
| COc1ccc2cc1Oc1ccc(cc1)C[C@H]1c3c(cc4c(c3Oc3cc5c(cc3OC)CCN(C)[C@@H]5C2)OCO4)CCN1C [CEPHARANTHINE] | > 50 | 5.35 | 11.2 | – | – |
| CCC(CC)COC(=O)[C@H](C)N[P@](=O)(OC[C@H]1O[C@@](C#N)(c2ccc3c(N)ncnn23)[C@H](O)[C@@H]1O)Oc1ccccc1 | > 25 | – | – | – | – |
| CCN(CC)CCOc1ccc2c(c1)C(=O)c1cc(OCCN(CC)CC)ccc1-2 [TILORONE] | 19.7 | 5.39 | 4.81 | – | – |
| C[C@@H]1O[C@@H](O[C@H]2C[C@@H](O)[C@]3(CO)[C@H]4[C@H](O)C[C@]5(C)[C@@H](C6=CC(=O)OC6)CC[C@]5(O)[C@@H]4CC[C@]3(O)C2)[C@H](O)[C@H](O)[C@H]1O [OUABAIN OCTAHYDRATE] | > 50 | > 7.01 | 516 | – | – |
| CSc1ccc2c(c1)N(CCC1CCCCN1C)c1ccccc1S2 (centres undefined) [THIORIDAZINE] | 16 | 5.17 | 2.39 | – | – |
| CCCCCOc1ccc(-c2ccc(-c3ccc(C(=O)N[C@H]4C[C@@H](O)[C@@H](O)NC(=O)[C@@H]5[C@@H](O)[C@@H](C)CN5C(=O)[C@H]([C@@H](C)O)NC(=O)[C@H]([C@H](O)[C@@H](O)c5ccc(O)cc5)NC(=O)[C@@H]5C[C@@H](O)CN5C(=O)[C@H]([C@@H](C)O)NC4=O)cc3)cc2)cc1 [ANIDULAFUNGIN] ({pTerphenylCO(4''-OnC5H11)}-[Orn(4R-OH,5R-OH)]T[Hyp][hTyr(3S-OH,4S-OH)]T[Pro(3S-OH,4S-Me)]; lactam 1-C) | > 50 | 5.33 | 10.8 | – | – |
| CCc1nc(C(N)=O)c(Nc2ccc(N3CCC(N4CCN(C)CC4)CC3)c(OC)c2)nc1NC1CCOCC1 [GILTERITINIB] | 37.2 | 5.17 | 5.5 | – | – |
| CCN(CC)CCCC(C)Nc1c2ccc(Cl)cc2nc2ccc(OC)cc12 (centres undefined) [QUINACRINE] | 14.7 | < 4.30 | – | – | 0.29 |
| c1ccc2c(c1)Sc1ccccc1N2CC1CN2CCC1CC2 (centres undefined) [MEQUITAZINE] | 27.3 | 5.14 | 3.76 | – | – |
| CCCCc1oc2ccc(NS(C)(=O)=O)cc2c1C(=O)c1ccc(OCCCN(CCCC)CCCC)cc1 [DRONEDARONE] | 8.75 | 5.41 | 2.23 | – | – |
| CC(C)(C)c1cc(C(C)(C)C)c(NC(=O)c2c[nH]c3ccccc3c2=O)cc1O [IVACAFTOR] | 27.3 | 5.18 | 3.76 | – | – |
| COc1ccc2cc1Oc1ccc(cc1)C[C@H]1c3cc(c(OC)cc3CCN1C)Oc1c(OC)c(OC)cc3c1[C@H](C2)N(C)CC3 [FANCHININ] | 14.9 | 5.52 | 4.97 | – | – |
| OC1(c2ccc(Cl)c(C(F)(F)F)c2)CCN(CCCC(c2ccc(F)cc2)c2ccc(F)cc2)CC1 [PENFLURIDOL] | 8.77 | 5.30 | 1.75 | – | – |
| CC(C)C(=O)OCC(=O)[C@@]12O[C@H](C3CCCCC3)O[C@@H]1C[C@H]1[C@@H]3CCC4=CC(=O)C=C[C@]4(C)[C@H]3[C@@H](O)C[C@@]12C [CICLESONIDE] | > 50 | 5.36 | 11.6 | – | – |
| CCN(CC)CCCC(C)Nc1ccnc2cc(Cl)ccc12 (centres undefined) [CHLOROQUINE] | > 150 | – | – | – | – |
| CC/C(=C(/c1ccc(OCCN(C)C)cc1)c1cccc(O)c1)c1ccccc1 [DROLOXIFENE] | 15.8 | 5.18 | 2.4 | – | – |
| CCN(CC)CCOc1ccc(C(O)(Cc2ccc(Cl)cc2)c2ccc(C)cc2)cc1 (centres undefined) [TRIPARANOL] | 14.7 | 5.15 | 2.09 | – | – |
| CN(C)CCOc1ccc(/C(=C(/CCCl)c2ccccc2)c2ccccc2)cc1 [TOREMIFENE] | 10.1 | 5.45 | 2.82 | – | – |
| Cc1c(-c2ccc(O)cc2)n(Cc2ccc(OCCN3CCCCCC3)cc2)c2ccc(O)cc12 [BAZEDOXIFENE] | 15 | – | – | – | – |

Source: ChEMBL document CHEMBL4303084, “Identification of antiviral drug candidates against SARS-CoV-2 from FDA-approved drugs” (2020)
